Measured values published in patent EP1473301A2, “Betulinol derivatives” (CORNELL RESEARCH FOUNDATION, INC., priority 1997, dated 1998).

Tests used:
[1] = Betulinol biacetate solubility in organic solvents; assay type: physicochemical
Description: Studies of betulinol biacetate solubility were conducted in order to determine the appropriate solvent for product crystallization and purification.

EHRLICH-LETTRE CARCINOMA = assay: Anti-carcinogenic activity in mice with transplanted Ehrlich tumor (average length of life); assay type: in vivo, white mice; settings: for ALL (Average length of life): 17 Mice/Group, control 10.6; for % of control (ALL): control = 100
Description: (§1) The anti-carcinogenic activity of betulinol biacetate and betulonic aldehyde was assessed using 117-120 gram white rats implanted with […] and 21-23 gram white mice with artificially transplanted Ehrlich's tumor.
(§2) Solutions of 2.5% betulonic aldehyde and 0.05% betulinol biacetate were prepared in 10% polyvinylpyrrolidone containing Tween-80 (a sorbitan mono-9-octadecenate poly(oxy-1,2-ethanediyl)) stabilizer.
(§3) Mice were injected with 0.1-0.2 ml of either betulinol biacetate or betulonic aldehyde solution daily, starting 24 hours after transplantation, for the following 5 days. Rats were injected with 1.2 ml of either betulinol biacetate or betulonic aldehyde solution daily, starting 24 hours after implantation, for the following 5 days. Animals in control groups received the same amount of a 10% solution of polyvinylpyrrolidone.
(§4) The anti-tumor effect of betulinol acetate or betulonic aldehyde was determined by measuring the volume of the tumor on the 10th day after implantation. An average length of life ("ALL") was calculated for each of the deceased animals. In addition, the percentage of cured rats was also determined.
(§5) The volume of the tumor was measured and calculated as a multiple of the quadrate of its similar diameter by the greater diameter. Thus, the effect was expressed as a ratio ("E/C"), in percent, of the tumor volume in rats treated with betulinol acetate or betulonic aldehyde ("E") and the tumor volume in control rats ("C"). The effect of betulinol acetate or betulonic aldehyde on ALL was evaluated the same way.
(§6) A total of 155 mice and 142 rats were used for these experiments.

[2] = tested on: WALKER-CARCINOMA (carcinosarcoma); assay: Anti-carcinogenic activity in rats implanted with Walker carcinoma (tumor volume, average length of life, % cured); assay type: in vivo, white rats
Description: as §1, §2, §3, §4, §5, §6

[3] = Group 1, Dose/day 206.7 mg/kg body weight
[4] = Group 2, Dose/day 197.0 mg/kg body weight
[5] = Group 3, Dose/day 98.0 mg/kg body weight

C=C(C)[C@@H]1CC[C@]2(COC(C)=O)CC[C@]3(C)[C@H](CC[C@@H]4[C@@]5(C)CC[C@H](OC(C)=O)C(C)(C)[C@@H]5CC[C@]43C)[C@@H]12 [Betulinol diacetate, Betulinol Biacetate]
BBA Mass Content, %, at 20 °C ([1]; Acetone): 32 mass % | BBA Mass Content, %, at T (°C) ([1]; Acetone, 56 °C): 68 mass % | BBA Mass Content, %, at 20 °C ([1]; Benzene): 100 mass % | BBA Mass Content, %, at 20 °C ([1]; Butanol): 15 mass % | BBA Mass Content, %, at T (°C) ([1]; Butanol, 95 °C): 100 mass % | BBA Mass Content, %, at 20 °C ([1]; Chloroform): 100 mass % | BBA Mass Content, %, at 20 °C ([1]; Dimethylsulfoxide): 30 mass % | BBA Mass Content, %, at T (°C) ([1]; Dimethylsulfoxide, 189 °C): 100 mass % | BBA Mass Content, %, at 20 °C ([1]; Dioxane): 30 mass % | BBA Mass Content, %, at T (°C) ([1]; Dioxane, 101 °C): 100 mass % | BBA Mass Content, %, at 20 °C ([1]; Ethanol): 2.8 mass % | BBA Mass Content, %, at T (°C) ([1]; Ethanol, 78 °C): 18 mass % | BBA Mass Content, %, at 20 °C ([1]; Ethylacetate): 53 mass % | BBA Mass Content, %, at T (°C) ([1]; Ethylacetate, 77 °C): 100 mass % | BBA Mass Content, %, at 20 °C ([1]; Hexane): 15 mass % | BBA Mass Content, %, at T (°C) ([1]; Hexane, 69 °C): 52 mass % | BBA Mass Content, %, at 20 °C ([1]; Isopropanol): 6.5 mass % | BBA Mass Content, %, at T (°C) ([1]; Isopropanol, 82 °C): 72 mass % | BBA Mass Content, %, at 20 °C ([1]; Toluene): 100 mass %

C=C(C)[C@@H]1CC[C@]2(C=O)CC[C@]3(C)[C@H](CC[C@@H]4[C@@]5(C)CCC(=O)C(C)(C)[C@@H]5CC[C@]43C)[C@@H]12 [Betulon aldehyde, Betulonic Aldehyde]
ALL (Average length of life) (EHRLICH-LETTRE CARCINOMA; [3]): 12.5 days | % of control (ALL) (EHRLICH-LETTRE CARCINOMA; [3]): 118.0% | ALL (Average length of life) (EHRLICH-LETTRE CARCINOMA; [4]): 10.5 days | % of control (ALL) (EHRLICH-LETTRE CARCINOMA; [4]): 99.1% | ALL (Average length of life) (EHRLICH-LETTRE CARCINOMA; [5]): 11.0 days | % of control (ALL) (EHRLICH-LETTRE CARCINOMA; [5]): 103.7% | rate of the tumor growth inhibited (of the control group) ([2]; 10th day, tumor volume versus control, dose and species not stated in the sentence (method speaks of rats)): 31.2% | ALL (Average length of life) ([2]; rats, Group 1, Dose/day 102.6 mg/kg body weight, injected daily for 5 days, 28 Rats/Group, control 21.7): 26.5 days | % of control (ALL) ([2]; rats, Group 1, Dose/day 102.6 mg/kg body weight, control = 100): 122.1% | % cured ([2]; rats, Group 1, Dose/day 102.6 mg/kg body weight, cured rats lived over two months after implantation): 33.0%
